Patent US9096538B2, “Pharmaceutical comprising PPAR agonist” (Senju Pharmaceutical Co., Ltd., priority 2005, dated 2015)

Tests used:
[1] = system: normal human corneal epithelial cell; test: Test Example 5: increase in cell number, normal human corneal epithelial cell, 24 hours (Cell Counting Kit-8); type: cell-based; conditions: no addition group = 100%, average ± standard deviation, N = 3 to 4
Protocol: (§1) A normal human corneal epithelial cell (KURABO) was used.
As the test substance, the following compounds were used. PPARδ agonist: L-165041 (Sigma-Aldrich), GW-501516 (Alexis)
In addition, as a positive control for confirming the cell proliferation promoting effect, a medium in which a mouse-derived epithelial growth factor (mEGF) contained in an HCGS proliferation additive set (KURABO) was added to a basal medium (basal medium+1 ng/mL mEGF) was used.
This cell suspension was seeded on a fibronectin-coated multiwell plate (24 well, BECTON DICKINSON) so that the cell number became 2×10^4 cells/500 μL/well (since the bottom area is 2 cm^2, the number is 1×10^4 cells/cm^2).
Further, 24 hours thereafter, the culture medium was exchanged with each 400 μL of the following culture media. • [1] Only basal medium (no addition group) • [2] Basal medium+mEGF (final concentration: 1 ng/mL; positive control group) • [3] Basal medium+L-165041 (final concentration: 0.01 μM and 0.1 μM) • [4] Basal medium+GW-501516 (final concentration: 0.001 μM and 0.01 μM)

[2] = system: normal human corneal epithelial cell; test: Test Example 6: increase in cell number, normal human corneal epithelial cell, 48 hours (Cell Counting Kit-8); type: cell-based; conditions: 10^−8 M, no addition group = 100%, average ± standard deviation, N = 4 to 5
Protocol: as §1
As the test substance, the following compounds were used. • PPARδ Agonist: GW-501516 (Alexis), GW-0742 (Sigma-Aldrich)
Only basal medium (no addition group) • [2] Basal medium+GW-501516 (final concentration: 0.01 μM) • [3] Basal medium+GW-0742 (final concentration: 0.01 μM)

[3] = system: rabbit corneal epithelial cell; test: Test Example 2: increase in cell number, cultured rabbit corneal epithelial cell, 120 hours (Cell Counting Kit-8); type: cell-based; conditions: no addition group = 100%, average ± standard deviation, N = 5
Protocol: A male rabbit (Japanese white, weight: about 1.5 kg, […] LABES Co., Ltd.) was used. The experimental animal was used according to the International Guiding Principles for Biomedical Research Involving Animals.
A rabbit corneal epithelial cell was prepared using the same process as that of (Test example 1).
As the test substance, the following compounds were used. • PPARδ agonist: L-165041 (Sigma-Aldrich) and GW-501516 (Alexis)
For studying the effect of promoting cell proliferation by each test substance, a culture medium prepared by removing a mouse-derived epithelial growth factor (mEGF) attached to RCGM2, from RCGM2, was used as a basal medium, while as a positive control for confirming the effect of promoting cell proliferation, a medium with an mEGF added thereto (basal medium+10 ng/mL mEGF) was used according to instructions of an RCGM2 preparation protocol.
Collagen treatment of the culture dish was performed using the same process as that of (Test Example1).
In the test, a rabbit corneal epithelial cell which had been cultured to subconfluent in a culture dish having a diameter of 10 cm was used. After the culture medium was removed, the bottom of the culture dish was washed two times using D-PBS, to this was added 1 mL of trypsin-EDTA, this was incubated at 37° C. for 5 minutes and thereby, the cell was peeled from the bottom of the culture dish. After incubation, 9 mL of MEM containing 10% FBS was added to the culture dish to stop the enzymatic reaction, and this was subjected to centrifugation at room temperature and 1,500 rpm for 5 minutes to obtain a corneal epithelial cell layer. To the resulting cell was added an appropriate amount of RCGM2 to a cell concentration of 1×10^5 cells/mL to suspend the cell. Each 64 μL of this cell suspension was dispensed in each well at the cell number per bottom area (0.32 cm^2) of the collagen-treated 96-well culture dish for tissue culture of […]. […] After 24 hours from cell seeding, the culture medium was discarded, and each 100 μL of the following culture media were freshly dispensed into each well of the culture dish. • [1] Only basal medium (no addition group) • [2] Basal medium+mEGF (final concentration: 10 ng/mL; positive control group) • [3] Basal medium+L-165041 (final concentration: 0.1 μM and 1 μM) • [4] Basal medium+GW-501516 (final concentration: 0.01 μM and 0.1 μM)
The culture supernatant of each well was removed every 48 hours from exchange of the culture medium containing a test substance, and each 100 μL of the freshly prepared culture medium was dispensed into each well.

[4] = system: monkey meibomian gland epithelial cell; test: Test Example 8: increase in number of monkey meibomian gland epithelial cells (Cell Counting Kit-8); type: cell-based; conditions: 3 x 48 hours; for Cell proliferation (%): no addition group = 100%, average ± standard deviation, N = 5
Excerpt: For studying the effect of promoting cell proliferation by each test substance, a culture medium prepared by removing the supplement attached to DK-SFM, from DK-SFM, was used as a basal medium, while as a positive control for confirming the cell proliferation promoting effect, a culture medium with the supplement added thereto (basal medium+supplement) was used according to instructions of an DK-SFM preparation protocol. […] In the test, a monkey meibomian gland epithelial cell which had been cultured to subconfluent, suspended in a cell banker (Nippon Zenyaku Kogyo Co., Ltd.), and cryopreserved in liquid nitrogen was used. The cell which had been cryopreserved was thawed, and transferred to a 50 mL centrifuge tube and a 10-fold amount of DK-SFM was added thereto. […] Each 64 μL of this cell suspension was dispensed into each well so that the cell number per bottom area (0.32 cm^2) of the collagen-treated 96-well culture dish for tissue culture became 4×10^4 cells/cm^2. […] After 48 hours from initial culture medium exchange, the culture medium was exchanged with a freshly prepared culture medium of each of [1] to [4]. Further, after 48 hours therefrom, the culture medium was exchanged again with a freshly prepared culture medium of each of [1] to [4].

[5] = system: corneal epithelial wound; test: Test Example 9: healing of corneal epithelial wound after corneal epithelium scraping, eyedrop; type: in vivo, rabbit; conditions: 0.05% eyedrop; for ratio (%) of remaining corneal epithelial defect: initial value = 100%, average ± standard deviation, N = 4
Excerpt: A male rabbit (Japanese white, […] LABES Co., Ltd.) was used. The experimental animal was used according to the International Guiding Principles for Biomedical Research Involving Animals.
As the test substance, a PPARδ agonist GW-501516 (Alexis Biochemicals) was used. A solution in which GW-501516 was suspended in the following vehicle to 0.05% was used as an eyedrop solution.
As a control for the test substance administration group, the aforementioned vehicle administration group containing no drug was set.
After the animal was subjected to systemic anesthesia by intramuscular injection (0.9 mL/kg) with a selactar (2% xylazine: Bayer): ketalar (5% ketamine: Sankyo)=0.5:1 mixed solution, an oxybuprocaine hydrochloride eyedrop solution (Benoxil eyedrop solution 0.4%; Santen Pharmaceutical Co., Ltd.) was administered, and eyeballs were exposed. A mark having a diameter of 6 mm was stamped on a corneal epithelium at a corneal central part using a trephine having a diameter of 6 mm, and a whole corneal epithelial layer within a stamped circumference was scraped using a handy rooter under a stereomicroscope. After scraping, a corneal surface was washed using physiological saline (Otsuka Pharmaceutical Factory Inc.), and eyeballs were returned into the orbit to complete the corneal epithelial scraping treatment.
A test substance eyedrop solution or an eyedrop solution vehicle was administered to treated eyes at 50 μL per once using a micropipette two times a day on the corneal epithelium scraping day and, on the following day and thereafter, four times a day until completion of the test.
At the time point at which corneal epithelium scraping of both eyes of all individuals was completed was defined as the test initiation time (0 hour) and, by quantitating the corneal epithelial defect area at 24, 38 and 48 hours thereafter, restoration of a corneal epithelium was assessed. That is, at each time point, 10 μL of a 0.1% fluorescein sodium (Wako Pure Chemical Industries, Ltd.) solution was administered to treated eyes, a photograph of an anterior ocular segment of the animal was immediately taken using a slit lamp equipped with a cobalt filter and thereby, a stained corneal epithelial defect region was recorded. A developed photograph was stored as a digital image in a computer, and an area of the stained corneal epithelial defect part was measured using image analysis software (Image-Pro Plus).
Regarding the corneal epithelial defect area measured at each time point, a value for each individual was calculated, assuming that its initial value was 100%, and this was adopted as a ratio of the remaining corneal epithelial defect.

**Q.** Which “Cell proliferation (%)” value ([1]; 10^−8 M) does the source give for `Cc1cc(SCc2sc(-c3ccc(C(F)(F)F)cc3)nc2C)ccc1OCC(=O)O` [GW-501516, (2-methyl-4-(((4-methyl-2-(4-(trifluoromethyl)phenyl)-5-thiazolyl)methyl)thio)phenoxy)acetic acid] here?
**A.** 125.7 ± 2.3%

**Q.** And the “Cell proliferation (%)” value ([1]; 10^−9 M)?
**A.** 133.1 ± 3.7%

**Q.** What about the “Cell proliferation (%)” value [2] of the same compound?
**A.** 129.2 ± 7.5%

**Q.** And the “Cell proliferation (%)” value ([3]; 10^−7 M)?
**A.** 213.2 ± 34.0%

**Q.** What about the “Cell proliferation (%)” value ([3]; 10^−8 M) of the same compound?
**A.** 223.9 ± 24.1%

**Q.** What about the “cell proliferation compared to the no addition group (in words)” value ([4]; 10^−7 M) of the same compound?
**A.** significantly higher than in the no addition group

**Q.** What about the “Cell proliferation (%)” value ([4]; 10^−7 M) of the same compound?
**A.** 156.1 ± 18.9%

**Q.** And the “Cell proliferation (%)” value ([4]; 10^−8 M)?
**A.** 133.3 ± 7.4%

**Q.** And the “ratio (%) of remaining corneal epithelial defect” value ([5]; 0 hour (initial value))?
**A.** 100.0 ± 6.5%

**Q.** And the “ratio of the corneal epithelial defect compared to vehicle (in words)” value ([5]; 24 hours and 38 hours after corneal epithelium scraping)?
**A.** significantly decreased

**Q.** And the “ratio (%) of remaining corneal epithelial defect” value ([5]; 24 hours later, 50 μL)?
**A.** 25.3 ± 3.1 %

**Q.** What about the “ratio (%) of remaining corneal epithelial defect” value ([5]; 38 hours later, 50 μL) of the same compound?
**A.** 0.2 ± 0.2 %

**Q.** What about the “corneal epithelial defect (in words)” value ([5]; after 48 hours, all individuals (vehicle group too)) of the same compound?
**A.** disappeared in all individuals
